Patent US12648944B2, “Masitinib for the treatment of castrate-resistant prostate cancer” (AB SCIENCE, priority 2021, dated 2026)

Test system: first line metastatic castrate-resistant prostate cancer (mCRPC)
Assay: Phase 3 randomized double blind placebo-controlled study of masitinib in combination with docetaxel (+ prednisone), progression-free survival
Assay type: in vivo, human
Details: for Median progression-free survival (PFS): masitinib 6 mg/kg/day + docetaxel + prednisone; for Hazard Ratio / Risk Benefit: masitinib vs placebo, each + docetaxel + prednisone
Experimental: A prospective, multicenter, randomized, double blind, placebo-controlled, 2-parallel groups, phase 3 study was conducted to assess the efficacy and safety of masitinib in combination with docetaxel as compared to placebo in combination with docetaxel in first line metastatic castrate-resistant prostate cancer (mCRPC).
The objective of the study was to assess the efficacy and safety of masitinib in combination with docetaxel as compared to docetaxel in combination with placebo in first line metastatic castrate-resistant prostate cancer (mCRPC). Efficacy was assessed based on the progression-free survival (PFS), measured in months.
The patients recruited in the study consist of adult males suffering from prostate cancer who progressed to develop castration-resistant prostate cancer (CRPC) after castration treatment (reduction of androgens (e.g., testosterone, dihydrotestosterone (DHT)) by chemical or surgical means). These patients are considered to be patients in the first line metastatic castration-resistant prostate cancer (mCRPC).
The patients recruited in the study were randomized in two groups with a ratio 1:1: • Group 1: masitinib (6 mg/kg/day)+docetaxel (75 mg/m^2 6 cycles—8 or 10 cycles possible)+prednisone according to usual practice; • Group 2: placebo+docetaxel (75 mg/m^2 6 cycles—8 or 10 cycles possible)+prednisone according to usual practice.
Docetaxel was combined with prednisone as usual practice.
Patients were centrally randomized to one of the two treatment groups by IWRS (Interactive Web Response System) according to minimization method.
Inclusion criteria were: • Patient aged≥18 years old, with histologically or cytologically confirmed metastatic castrate-resistant prostate cancer (medical or surgical castration: androgens deprivation by GnRH agonist or antagonist or patient with surgical castration; hormonal castration confirmed biologically (testosterone<0.5 ng/ml) with one of the following criteria: • If surgical castration is done than there is no requirement to perform testosterone test. • Pre-treated with abiraterone with progressed disease documented, OR • With indication for initiating docetaxel administration (e.g., widespread visceral disease or rapidly progressive disease). • Patient with evidence of progressive metastatic disease. Disease progression at trial enrolment is based on progression in at least one variable as described in the Prostate Cancer Clinical Trials Working Group (PCWG2) definition of response and progression for disease manifestations in prostate cancer (Scher et al. J Clin Oncol. 2008; 26:1148-1159):
• Patient with ECOG≤1 • Patient with adequate organ function: […]

[1] = Halabi prognosis score H > 15 at baseline
[2] = Halabi prognosis score H > 16 at baseline
[3] = Halabi prognosis score H > 17 at baseline
[4] = Halabi prognosis score H > 18 at baseline
[5] = Halabi prognosis score H > 19 at baseline
[6] = Halabi prognosis score H > 20 at baseline
[7] = Halabi prognosis score H > 21 at baseline
[8] = Halabi prognosis score H > 22 at baseline
[9] = Halabi prognosis score H > 27 at baseline
[10] = Halabi prognosis score H > 33 at baseline
[11] = Halabi prognosis score H ≤ 15 at baseline
[12] = Halabi prognosis score H ≤ 16 at baseline
[13] = Halabi prognosis score H ≤ 17 at baseline
[14] = Halabi prognosis score H ≤ 18 at baseline
[15] = Halabi prognosis score H ≤ 19 at baseline
[16] = Halabi prognosis score H ≤ 20 at baseline
[17] = Halabi prognosis score H ≤ 21 at baseline
[18] = Halabi prognosis score H ≤ 22 at baseline
[19] = Halabi prognosis score H ≤ 27 at baseline
[20] = Halabi prognosis score H ≤ 33 at baseline
[21] = baseline ALP > 250 IU/L and H > 18
[22] = baseline ALP > 250 IU/L and H > 19
[23] = baseline ALP > 250 IU/L and H > 20
[24] = baseline ALP > 250 IU/L and H > 21
[25] = baseline ALP > 250 IU/L and H > 22
[26] = baseline ALP > 250 IU/L and H ≤ 20
[27] = baseline ALP > 250 IU/L and H ≤ 21
[28] = baseline ALP > 250 IU/L and H ≤ 22
[29] = baseline ALP equal to or lower than 100 IU/L and H equal to or lower than 18
[30] = baseline ALP equal to or lower than 150 IU/L and H equal to or lower than 18
[31] = baseline ALP equal to or lower than 200 IU/L and H equal to or lower than 18
[32] = baseline ALP ≤ 250 IU/L and H < 21
[33] = baseline ALP ≤ 250 IU/L and H < 22
[34] = baseline ALP ≤ 250 IU/L and H > 18
[35] = baseline ALP ≤ 250 IU/L and H > 19
[36] = baseline ALP ≤ 250 IU/L and H > 20
[37] = baseline ALP ≤ 250 IU/L and H > 21
[38] = baseline ALP ≤ 250 IU/L and H > 22
[39] = baseline ALP ≤ 250 IU/L and H ≤ 18
[40] = baseline ALP ≤ 250 IU/L and H ≤ 19
[41] = baseline ALP ≤ 250 IU/L and H ≤ 20

Cc1ccc(NC(=O)c2ccc(CN3CCN(C)CC3)cc2)cc1Nc1nc(-c2cccnc2)cs1 [MASITINIB, 4-(4-methylpiperazin-1-ylmethyl)-N-[4-methyl-3-(4-pyridin-3ylthiazol-2-ylamino)phenyl]benzamide]
Median progression-free survival (PFS) [1]: 5.5 months
Hazard Ratio [1]: 0.99
Risk Benefit [1]: 1%
Median progression-free survival (PFS) [2]: 5.5 months
Hazard Ratio [2]: 1.00
Risk Benefit [2]: 0%
Median progression-free survival (PFS) [3]: 5.5 months
Hazard Ratio [3]: 1.00
Risk Benefit [3]: 0%
Median progression-free survival (PFS) [4]: 5.5 months
Hazard Ratio [4]: 1.00
Risk Benefit [4]: 0%
Median progression-free survival (PFS) [5]: 5.4 months
Hazard Ratio [5]: 1.00
Risk Benefit [5]: 0%
Median progression-free survival (PFS) [6]: 4.9 months
Hazard Ratio [6]: 1.04
Risk Benefit [6]: −4%
Median progression-free survival (PFS) [7]: 4.9 months
Hazard Ratio [7]: 1.07
Risk Benefit [7]: −7%
Median progression-free survival (PFS) [8]: 4.9 months
Hazard Ratio [8]: 1.09
Risk Benefit [8]: −9%
Median progression-free survival (PFS) [9]: 4.8 months
Hazard Ratio [9]: 1.20
Risk Benefit [9]: −20%
Median progression-free survival (PFS) [10]: 4.1 months
Hazard Ratio [10]: 1.34
Risk Benefit [10]: −34%
Median progression-free survival (PFS) [11]: 15 months
Hazard Ratio [11]: 0.28
Risk Benefit [11]: 72%
Median progression-free survival (PFS) [12]: 9.0 months
Hazard Ratio [12]: 0.35
Risk Benefit [12]: 65%
Median progression-free survival (PFS) [13]: 7.0 months
Hazard Ratio [13]: 0.49
Risk Benefit [13]: 51%
Median progression-free survival (PFS) [14]: 7.0 months
Hazard Ratio [14]: 0.54
Risk Benefit [14]: 46%
Median progression-free survival (PFS) [15]: 6.9 months
Hazard Ratio [15]: 0.69
Risk Benefit [15]: 31%
Median progression-free survival (PFS) [16]: 7.0 months
Hazard Ratio [16]: 0.65
Risk Benefit [16]: 36%
Median progression-free survival (PFS) [17]: 7.0 months
Hazard Ratio [17]: 0.65
Risk Benefit [17]: 35%
Median progression-free survival (PFS) [18]: 6.9 months
Hazard Ratio [18]: 0.65
Risk Benefit [18]: 35%
Median progression-free survival (PFS) [19]: 6.5 months
Hazard Ratio [19]: 0.75
Risk Benefit [19]: 25%
Median progression-free survival (PFS) [20]: 6.4 months
Hazard Ratio [20]: 0.81
Risk Benefit [20]: 19%
Median progression-free survival (PFS) (baseline ALP > 100 IU/L): 5.4 months
Hazard Ratio (baseline ALP > 100 IU/L): 1.02
Median progression-free survival (PFS) (baseline ALP > 150 IU/L): 4.9 months
Hazard Ratio (baseline ALP > 150 IU/L): 1.14
Median progression-free survival (PFS) (baseline ALP > 200 IU/L): 4.4 months
Hazard Ratio (baseline ALP > 200 IU/L): 1.17
Median progression-free survival (PFS) [21]: 4.3 months
Hazard Ratio [21]: 1.19
Median progression-free survival (PFS) [22]: 4.2 months
Hazard Ratio [22]: 1.18
Median progression-free survival (PFS) [23]: 4.2 months
Hazard Ratio [23]: 1.19
Median progression-free survival (PFS) [24]: 4.2 months
Hazard Ratio [24]: 1.19
Median progression-free survival (PFS) [25]: 4.2 months
Hazard Ratio [25]: 1.20
Median progression-free survival (PFS) (baseline ALP > 250 IU/L and H ≤ 18): 3.4 months
Median progression-free survival (PFS) (baseline ALP > 250 IU/L and H ≤ 19): 9.2 months
Median progression-free survival (PFS) [26]: 13 months
Hazard Ratio [26]: 1.78
Median progression-free survival (PFS) [27]: 8.3 months
Hazard Ratio [27]: 0.99
Median progression-free survival (PFS) [28]: 8.3 months
Hazard Ratio [28]: 0.88
Median progression-free survival (PFS) (baseline ALP > 250 IU/L): 4.2 months
Hazard Ratio (baseline ALP > 250 IU/L): 1.20
Hazard Ratio [29]: 0.46
Risk Benefit [29]: 56%
Hazard Ratio [30]: 0.46
Risk Benefit [30]: 55%
Hazard Ratio [31]: about 0.5
Risk Benefit [31]: about 50%
Median progression-free survival (PFS) (baseline ALP ≤ 100 IU/L): 9.0 months
Hazard Ratio (baseline ALP ≤ 100 IU/L): 0.53
Risk Benefit (baseline ALP ≤ 100 IU/L): 47%
Risk Benefit (baseline ALP ≤ 100 IU/L, listed as masitinib): 47%
Median progression-free survival (PFS) (baseline ALP ≤ 150 IU/L): 6.9 months
Hazard Ratio (baseline ALP ≤ 150 IU/L): 0.63
Risk Benefit (baseline ALP ≤ 150 IU/L): 37%
Median progression-free survival (PFS) (baseline ALP ≤ 200 IU/L): 6.9 months
Hazard Ratio (baseline ALP ≤ 200 IU/L): 0.73
Risk Benefit (baseline ALP ≤ 200 IU/L): 27%
Median progression-free survival (PFS) [32]: 7.0 months
Hazard Ratio [32]: 0.62
Risk Benefit [32]: 38%
Median progression-free survival (PFS) [33]: 6.9 months
Hazard Ratio [33]: 0.63
Risk Benefit [33]: 37%
Median progression-free survival (PFS) [34]: 6.2 months
Hazard Ratio [34]: 0.87
Median progression-free survival (PFS) [35]: 6.1 months
Hazard Ratio [35]: 0.86
Median progression-free survival (PFS) [36]: 5.8 months
Hazard Ratio [36]: 0.90
Median progression-free survival (PFS) [37]: 5.8 months
Hazard Ratio [37]: 0.94
Median progression-free survival (PFS) [38]: 5.8 months
Hazard Ratio [38]: 0.97
Median progression-free survival (PFS) [39]: 7.7 months
Hazard Ratio [39]: 0.52
Risk Benefit [39]: 48%
Median progression-free survival (PFS) [40]: 6.9 months
Hazard Ratio [40]: 0.66
Risk Benefit [40]: 34%
Median progression-free survival (PFS) [41]: 7.0 months
Hazard Ratio [41]: 0.62
Risk Benefit [41]: 38%
Median progression-free survival (PFS) (baseline ALP ≤ 250 IU/L): 6.3 months
Hazard Ratio (baseline ALP ≤ 250 IU/L): 0.79
Risk Benefit (baseline ALP ≤ 250 IU/L): 21%
